Measurements as given in patent US9629786B2, “Monoterpene derivatives of chalcone or dihydrochalcone and their use as depigmenting agents” (PIERRE FABRE DERMO-COSMETIQUE, priority 2011, dated 2017).

How the values were obtained:
[1] = target: fungal tyrosinase; details: monophenoloxidase activity on fungal tyrosinase; cited from earlier work
[2] = system: plasmodial; details: cited from earlier work
[3] = system: cancer cell line (lung); details: cited from earlier work
[4] = system: murine melanoma cell line B16-F10; assay: Inhibition of melanin synthesis, colorimetric assay on B16-F10; format: cell-based; details: Mus musculus, B16-F10 cells
Excerpt: Pharmacological Testing: Inhibition of Melanin Synthesis:
We have developed a test for measuring melanin synthesis by using a colorimetric assay on the murine melanoma cell line B16-F10. This assay enables to test the depigmenting power of active ingredients.

[5] = Stability of chalcone (cyclization to flavanone); format: physicochemical; details: for stability (cyclization to flavanone): purified / pure form
Excerpt: More preferably, ? is a double bond, R1=H and R2=OH, that is to say the extract according to the invention is enriched with gymnochalcone. […] In fact, cyclization of chalcones to flavanone, upon addition of a hydroxyl group on 1,4-position in the carbonyl group by a Michael type reaction, which brings about instability of the chalcones, is not observed in this case.
Thus preferably gymnochalcone will be used in the form of an extract of Helichrysum gymnocephalum.

Row | SMILES | IC50 [4] | stability (cyclization to flavanone) [5] | other results
1 | O=C(/C=C/c1ccccc1)c1c(O)cc(O)cc1O [2′,4′,6′-Trihydroxychalcone (II), 2′,4′,6′-Trihydroxychalcone] | – | – | IC50 [1]: 120 µM
2 | COc1cc(O)c(C(=O)CCc2ccccc2)c(O)c1[C@H]1C=C(C)CC[C@@H]1C(C)C [(−)-Methyl-linderatin] | – | – | anti-plasmodial activity [2]: anti-plasmodial activity
3 | CC1=C[C@H](c2c(O)cc(O)c(C(=O)CCc3ccccc3)c2O)[C@H](C(C)C)CC1 [(−)-linderatin] | – | – | cytotoxicity [3]: exhibited cytotoxicity
4 | OC[C@H]1O[C@@H](Oc2ccc(O)cc2)[C@H](O)[C@@H](O)[C@@H]1O [Arbutin, reference compound] | 158 µM | – | –
5 | CC1=CC(c2c(O)cc(O)c(C(=O)/C=C/c3ccccc3)c2O)C(C(C)(C)O)CC1 (stereo not shown) [Gymnochalcone, gymnochalcone] | 17 µM | cyclization is observed | stability in time ([5]; in the extract of Helichrysum gymnocephalum): stable in time
6 | COc1ccc(O)cc1 [Hydroquinone monomethyl ether, reference compound] | 31 µM | – | –
7 | O=c1cc(CO)occ1O [Kojic acid, reference compound] | 2400 µM | – | –
8 | CC1=CC(c2c(O)cc(O)c(C(=O)CCc3ccccc3)c2O)C(C(C)C)CC1 (stereo not shown) [Linderatin, linderatin] | 5 µM | stable in such form | –
9 | COc1cc(O)c(C(=O)CCc2ccccc2)c(O)c1C1C=C(C)CCC1C(C)C (stereo not shown) [Methyllinderatin, methyllinderatin] | 6 µM | stable in such form | –
